# Reference: publication PMC12686243, “Synthesis and preclinical evaluation of FAP-targeting radiotracers for PET and optical imaging” (EJNMMI Radiopharmacy and Chemistry, 2025)
# pKd: −log10 of the molar value. Like-named read-outs stand apart in the source and are kept apart here.
# Tests used:
# [1] = biological target: T1, hFAP (vital hFAP-HT1080 cells) (Homo sapiens, UniProt Q12884); assay: real-time binding (LigandTracer) to vital hFAP-HT1080 cells; details: for Bmax (%): fitted per individual curve, range; for Bmax (%) / ka / kd: room temperature; for ka / kd: global fit, 1:1 model
# T1 construct: expressed in transfected cells; host or cells: HT1080 (human fibrosarcoma), lentiviral transduction
# T1 sequence (Q12884 1-760): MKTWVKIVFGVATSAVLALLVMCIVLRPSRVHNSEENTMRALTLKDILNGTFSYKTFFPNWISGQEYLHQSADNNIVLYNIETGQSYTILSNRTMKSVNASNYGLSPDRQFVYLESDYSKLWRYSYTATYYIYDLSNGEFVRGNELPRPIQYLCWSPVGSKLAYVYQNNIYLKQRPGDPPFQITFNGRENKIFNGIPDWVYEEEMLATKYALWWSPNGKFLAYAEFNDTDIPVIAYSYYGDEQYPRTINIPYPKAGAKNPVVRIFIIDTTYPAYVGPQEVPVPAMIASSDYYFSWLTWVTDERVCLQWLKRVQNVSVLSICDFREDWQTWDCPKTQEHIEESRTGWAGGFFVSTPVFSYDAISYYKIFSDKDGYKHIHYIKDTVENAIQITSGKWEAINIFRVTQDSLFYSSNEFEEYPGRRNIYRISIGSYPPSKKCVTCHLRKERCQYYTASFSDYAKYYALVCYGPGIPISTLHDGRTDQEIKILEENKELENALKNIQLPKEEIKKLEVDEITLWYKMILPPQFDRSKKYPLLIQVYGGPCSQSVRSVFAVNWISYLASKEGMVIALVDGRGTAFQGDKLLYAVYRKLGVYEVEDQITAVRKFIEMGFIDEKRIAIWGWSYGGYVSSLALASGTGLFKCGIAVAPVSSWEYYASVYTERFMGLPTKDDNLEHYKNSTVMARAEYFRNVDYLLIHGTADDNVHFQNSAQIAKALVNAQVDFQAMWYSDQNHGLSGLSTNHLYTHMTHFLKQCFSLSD
# Method: (§1) To determine binding kinetics (association rate constant ka, dissociation rate constant kd, and thermodynamic dissociation constant KD), real-time assay systems (LigandTracer Yellow/White for radioactivity and Green with Red/NIR + and NIR + + /IR detectors for fluorescence; Ridgeview Instruments AB, Sweden) were utilized. In a 100 mm petri dish, cells or tissue sections in medium (3–4 mL total volume), are located on one side, while the radioactive or fluorescent signal is detected on the opposite, elevated side. Rotation on an inclined base in set intervals (30 s) allows continuous measurement of signal in the target (cells/tissue) against background area (no cells/tissue). Experiments were performed at room temperature, using CO2-independent medium, usually with 0.5–1% w/v bovine serum albumin, (#1ETA, Carl Roth, Germany). Association was determined through incubation with two distinct concentrations (between 1–5 and 4.5–10 nM, 60 min each, additive) for each compound. For that purpose, the same ligand preparation was typically employed for radioactive and fluorescent detection. This was followed by replacement with fresh medium and observation of dissociation for at least 2 h. Additionally, the dissociation rate constant was further investigated beyond 6 h, either using fluorescent detection or via gallium-67 (t1/2: 78.3 h). This approach provides reliable kinetic measurements in a 1:1 interaction setting, as previously shown (Onell and Andersson [2005]).
# Binding data was evaluated using TraceDrawer (1.9.2, Ridgeview Instruments AB, Sweden). Traces were imported, potential spikes (> 100% sudden signal increases over previous datapoints) removed and each trace was normalized to its own baseline (= 0%) and highest value (= 100%, typically at the end of the second association phase). This allows comparing data across experiments and ultimately global fitting, without differences, e.g. of molar activity, affecting it. Typically, at least 3 individual traces per ligand, substrate and modality were recorded. Data was fitted in TraceDrawer using a 1:1 interaction model, with/without accounting for bulk effect. A 1:1 interaction is the simplest model, as it describes the binding of a ligand at a constant concentration to the target, with each one molecule of ligand binding to one molecule of target.
# WT-HT1080 cells = assay: real-time binding control on wild type HT1080 cells; set-up: species or system human; details: cells lacking substantial FAP expression
# Method: as §1, with “This approach provides reliable kinetic measurements in a 1:1 interaction setting, as previously shown (Onell and Andersson [2005]).” left out
# [2] = system: hFAP-HT1080 and WT-HT1080 xenografts; assay: small-animal PET imaging of xenograft-bearing mice; assay type: in vivo, female NMRI-nude mice
# Description: Female athymic NMRI-nude mice (Rj:NMRI-Foxn1nu, Janvier Labs, France or Charles River, Germany) between 8 and 20 weeks of age were used. Subsequently, the prepared cells (1.0–2.0 × 10^6 hFAP/WT-HT1080 per animal) were subcutaneously injected into the right and left thigh, respectively. Xenograft tissue for real-time binding experiments was derived from animals injected with both target-positive and negative cells, however only showing growth of one tumor entity. When approaching endpoints, mice were anesthetized and euthanized. The tumor was quickly removed, frozen in − 45 °C 2-methylbutane and stored in sealed tubes at − 80 °C.
# PET and X-ray computed tomography (CT) were performed in a dedicated small animal scanner (nanoScan PET/CT, Mediso, Hungary). Animals received a single dynamic scan corresponding to 0–2 h post injection. The radiotracer solution (8 – 20 MBq injected activity) was delivered via an i.v. catheter (lateral tail vein) and PET acquisition was started simultaneously with the injection. Blocking was performed by pre-injection (~ 5 min prior to tracer) of 100 nmol of FAPI-04. Three-dimensional list mode data were binned (400–600 keV energy window) and sorted into 35-time frames (15 × 10 s, 5 × 30 s, 5 × 60 s, 4 × 300 s, 3 × 600 s, 3 × 1200 s). Time frames were then reconstructed using the Tera-Tomo™ 3D algorithm with a voxel size of 0.4 mm and corrected for decay, scatter, and attenuation. PET data was analyzed using Rover (ABX GmbH, Germany). Three-dimensional volumes of interest (VOI) were delineated based on organs/tissues [xenografts, kidney, liver, shoulder and muscle (~ biceps brachii)] and a fixed threshold (35% of the measured maximum intensity) was applied. This yielded standardized uptake values (SUV = [MBq detected activity/mL tissue] / [MBq injected activity/g body weight], mL/g) for the chosen VOI.
# [3] = from global fit of ka and kd, read-out: KD
# [4] = real-time binding, live cells, read-out: binding affinity (KD)
Structure (SMILES),Bmax (%) [1],"pKd [1, 3]",ka [1],kd [1],"pKd [1, 4]",binding to wild type HT1080 cells (WT-HT1080 cells),radioactivity in hFAP-HT1080 xenografts higher than in WT-HT1080 tumor (SUVmax) ([2]; SUVmax),radioactivity in hFAP-HT1080 xenografts higher than in WT-HT1080 tumor (SUVmean) ([2]; SUVmean),"increase of radioactivity in the kidney compared to tracer-only animals ([2]; pre-injection of unlabeled FAPI-04, depending on timepoint)"
CN(CCCN1CCN(C(=O)[C@H](CCCCNC(=O)CC[C@H](C(=O)[O-])N2CCN(CC(=O)[O-])CCN(CC(=O)[O-])CC2)NC(=O)CCOCCOCCOCCOCCNC(=O)CCCCC[N+]2=C(C=CC=CC=C3N(CCCS(=O)(=O)O)c4ccc(S(=O)(=O)O)cc4C3(C)C)C(C)(CCCS(=O)(=O)O)c3cc(S(=O)(=O)[O-])ccc32)CC1)c1ccc2nccc(C(=O)NCC(=O)N3CC(F)(F)C[C@H]3C#N)c2c1.[68Ga+3] (stereo partly drawn) [[^68Ga]Ga-NODAGA-FAP647],84–98%,10.86,484000 M⁻¹ s⁻¹,6.67e-06 s⁻¹,10.85,lacking any binding,392%,,
CN(CCCN1CCN(C(=O)[C@H](CCCCNC(=O)CC[C@H](C(=O)[O-])N2CCN(CC(=O)[O-])CCN(CC(=O)[O-])CC2)NC(=O)CCOCCOCCOCCOCCNC(=O)CCCCCN2C(=CC=C3CCCC(C=CC4=[N+](CCCCS(=O)(=O)[O-])c5ccc(S(=O)(=O)O)cc5C4(C)C)=C3Oc3ccc(S(=O)(=O)O)cc3)C(C)(C)c3cc(S(=O)(=O)O)ccc32)CC1)c1ccc2nccc(C(=O)NCC(=O)N3CC(F)(F)C[C@H]3C#N)c2c1.[68Ga+3] [[^68Ga]Ga-NODAGA-FAP800],91–96%,10.24,411000 M⁻¹ s⁻¹,2.37e-05 s⁻¹,10.24,lacking any binding,,236%,not observed
